Reference: ChEMBL document CHEMBL1201862, “PubChem BioAssay data set” (2004)
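1) Cells in 96-well plates. 2) Compound, 48 h, 5 concentrations. 3) Linear interpolation between surrounding doses. 4) Unreached endpoint = highest concentration. GI50 marks 50% less growth.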 The source made the active and inactive calls. No stated cut-off is given here; in the data, active = GI50 up to about 1.1 µM and inactive = higher.

Tests used:
Assay in all cases: growth of human tumour cells (NCI), 48 h
SW-620 = test system: SW-620
MDA-MB-231 = test system: MDA-MB-231
MDA-MB-435 = test system: MDA-MB-435
HCC 2998 = test system: HCC 2998
RXF 393 = test system: RXF 393
SK-MEL-5 = test system: SK-MEL-5
A549 = test system: A549
SNB-19 = test system: SNB-19
HOP-62 = test system: HOP-62
COLO 205 = test system: COLO 205
OVCAR-5 = test system: OVCAR-5
HT-29 = test system: HT-29
SK-MEL-2 = test system: SK-MEL-2
EKVX = test system: EKVX
U-251 = test system: U-251
PC-3 = test system: PC-3
NCI-H226 = test system: NCI-H226
BT-549 = test system: BT-549
UACC-257 = test system: UACC-257
NCI-H460 = test system: NCI-H460

Measured: GI50

COC1=CC(=O)c2c(ccc3ncnc(N)c23)C1=O
inactive: SW-620 1.93 µM | MDA-MB-231 1.19 µM | HCC 2998 6.03 µM | RXF 393 1.79 µM | SK-MEL-5 1.64 µM | A549 4.05 µM | SNB-19 2.38 µM | HOP-62 3.56 µM | COLO 205 3.58 µM | OVCAR-5 2 µM | HT-29 2.1 µM | SK-MEL-2 3.03 µM | EKVX 2.04 µM | U-251 1.74 µM | PC-3 2.32 µM | NCI-H226 2.2 µM | BT-549 1.79 µM | UACC-257 1.66 µM | NCI-H460 4.29 µM
active: MDA-MB-435 0.233 µM

COC(=O)c1ccc2c(O)c(O)ccc2c1
inactive: SW-620 12.1 µM | MDA-MB-231 6.56 µM | MDA-MB-435 1.87 µM | HCC 2998 15.1 µM | RXF 393 17.6 µM | SK-MEL-5 4.45 µM | A549 22.2 µM | SNB-19 14.4 µM | HOP-62 18.9 µM | COLO 205 13.6 µM | OVCAR-5 19.2 µM | HT-29 17.1 µM | SK-MEL-2 1.18 µM | EKVX 22.8 µM | U-251 14.4 µM | PC-3 5.6 µM | NCI-H226 23.1 µM | BT-549 12.5 µM | UACC-257 14.9 µM | NCI-H460 19.9 µM

CC(Oc1ccccc1)C(=O)NN (stereo not given)
inactive: SW-620 > 100 µM | MDA-MB-231 66.8 µM | MDA-MB-435 > 100 µM | HCC 2998 > 100 µM | RXF 393 > 100 µM | SK-MEL-5 > 100 µM | A549 > 100 µM | SNB-19 > 100 µM | HOP-62 > 100 µM | COLO 205 > 100 µM | OVCAR-5 > 100 µM | HT-29 > 100 µM | SK-MEL-2 > 100 µM | EKVX > 100 µM | U-251 > 100 µM | PC-3 > 100 µM | NCI-H226 > 100 µM | BT-549 > 100 µM | UACC-257 > 100 µM | NCI-H460 > 100 µM

CCOC(=O)C(NC(=O)CC)(Nc1ccc(F)c(Cl)c1)C(F)(F)F (stereo not given)
inactive: SW-620 > 100 µM | MDA-MB-231 > 100 µM | MDA-MB-435 > 92.9 µM | HCC 2998 > 100 µM | RXF 393 > 100 µM | SK-MEL-5 > 67.6 µM | A549 > 100 µM | SNB-19 > 100 µM | HOP-62 > 100 µM | COLO 205 > 100 µM | OVCAR-5 > 100 µM | HT-29 > 100 µM | SK-MEL-2 > 70 µM | EKVX > 100 µM | U-251 > 100 µM | PC-3 > 64.1 µM | NCI-H226 > 100 µM | BT-549 > 100 µM | UACC-257 > 100 µM | NCI-H460 > 100 µM

N#Cc1c(N2CCOCC2)[nH]c(=O)c(C(c2c(Cl)cccc2Cl)c2c(O)c(C#N)c(N3CCOCC3)[nH]c2=O)c1O
inactive: SW-620 17.7 µM | MDA-MB-231 16.6 µM | MDA-MB-435 16.6 µM | HCC 2998 12.5 µM | RXF 393 14.1 µM | SK-MEL-5 16.6 µM | A549 77.6 µM | SNB-19 16.1 µM | HOP-62 22.1 µM | COLO 205 13.8 µM | OVCAR-5 14 µM | HT-29 15.4 µM | SK-MEL-2 17.6 µM | EKVX 18.3 µM | U-251 16.7 µM | PC-3 17.8 µM | NCI-H226 23 µM | BT-549 17.6 µM | UACC-257 17.8 µM | NCI-H460 > 100 µM

CC(=O)Nc1ccc(CNc2cc(=O)[nH]c(=O)[nH]2)cc1
inactive: SW-620 > 100 µM | MDA-MB-231 > 100 µM | MDA-MB-435 > 100 µM | HCC 2998 > 100 µM | RXF 393 > 100 µM | SK-MEL-5 > 100 µM | A549 > 100 µM | SNB-19 > 100 µM | HOP-62 > 100 µM | COLO 205 > 100 µM | OVCAR-5 > 100 µM | HT-29 > 100 µM | SK-MEL-2 > 100 µM | EKVX > 100 µM | U-251 > 100 µM | PC-3 > 100 µM | NCI-H226 > 100 µM | BT-549 > 100 µM | UACC-257 > 100 µM | NCI-H460 > 100 µM

CCCCC1NC=Nc2c1ccc1c2[nH]c2ccccc21 (stereo not given)
active: RXF 393 0.713 µM
inactive: SW-620 1.95 µM | MDA-MB-231 1.73 µM | MDA-MB-435 1.88 µM | HCC 2998 1.71 µM | SK-MEL-5 1.58 µM | A549 2.3 µM | SNB-19 4.58 µM | HOP-62 5.32 µM | COLO 205 1.79 µM | OVCAR-5 4.63 µM | HT-29 1.86 µM | SK-MEL-2 3.82 µM | EKVX 3.8 µM | U-251 2.95 µM | PC-3 1.69 µM | NCI-H226 7.62 µM | BT-549 2.02 µM | UACC-257 1.75 µM | NCI-H460 2.17 µM

CC1(C)CCCC2CC2CCC(C)(C)C1=O (stereo not given)
active: HCC 2998 0.242 µM
inactive: SW-620 > 100 µM | MDA-MB-231 82.4 µM | MDA-MB-435 39.5 µM | RXF 393 27.4 µM | SK-MEL-5 42.9 µM | A549 42.4 µM | SNB-19 > 100 µM | HOP-62 > 100 µM | COLO 205 18.5 µM | OVCAR-5 46.5 µM | HT-29 44.7 µM | SK-MEL-2 31.8 µM | EKVX 57.9 µM | U-251 19.1 µM | PC-3 51.1 µM | NCI-H226 43.8 µM | BT-549 > 100 µM | UACC-257 39.5 µM | NCI-H460 34.8 µM

CO/C(N)=C(C#N)/N=C/c1ccsc1
inactive: SW-620 53.2 µM | MDA-MB-231 32.7 µM | MDA-MB-435 36.2 µM | HCC 2998 > 100 µM | RXF 393 31.8 µM | SK-MEL-5 28.2 µM | A549 > 100 µM | SNB-19 > 100 µM | HOP-62 > 100 µM | COLO 205 36.6 µM | OVCAR-5 > 100 µM | HT-29 40.7 µM | SK-MEL-2 37.3 µM | EKVX 54.6 µM | U-251 40 µM | PC-3 81.1 µM | NCI-H226 > 100 µM | BT-549 20.4 µM | UACC-257 41.9 µM | NCI-H460 > 100 µM

CC(Oc1ccc(Cl)cc1Cl)C(=O)NN1C(=O)CSC1c1ccccc1 (stereo not given)
inactive: SW-620 > 100 µM | MDA-MB-231 37.8 µM | MDA-MB-435 > 100 µM | HCC 2998 > 100 µM | RXF 393 54.7 µM | SK-MEL-5 70.8 µM | A549 39.3 µM | SNB-19 47.6 µM | HOP-62 47.5 µM | COLO 205 > 100 µM | OVCAR-5 > 100 µM | HT-29 > 100 µM | SK-MEL-2 45.4 µM | EKVX 90.2 µM | U-251 76.4 µM | PC-3 32.4 µM | NCI-H226 24.2 µM | BT-549 24 µM | UACC-257 53.2 µM | NCI-H460 > 100 µM
